Reference: paper PMC5622171 (Nature Communications, 2017)

Legend:
Test in all cases: KINOMEscan kinase profiling
Format in all cases: binding
PIM1 = target: T1, PIM1 (Homo sapiens, UniProt P11309); conditions: read-out: %Inhibition by 10 μM SPA70
T1 construct: purchased DiscoverX (Ambit Biosciences) KINOMEscan
Description: (§1) Kinase inhibition profiling assays. The kinase inhibition profiling assay (KINOMEscan) was performed by Ambit Biosciences, now part of DiscoveryX (Fremont, CA) in accordance with the […]
(§2) published protocol20, 21. […] If the inhibition of a kinase was greater […]
(§3) dilutions) starting from 30 µM.

MST4 = target: T2, MST4 (Homo sapiens, UniProt Q9P289); conditions: read-out: %Inhibition by 10 μM SPA70
T2 construct: purchased DiscoverX (Ambit Biosciences) KINOMEscan
Description: as §1, §2, §3

CAMK1G = target: T3, CAMK1G (Homo sapiens, UniProt Q96NX5); conditions: read-out: %Inhibition by 10 μM SPA70
T3 construct: purchased DiscoverX (Ambit Biosciences) KINOMEscan
Description: as §1, §2, §3

MAST1 = target: T4, MAST1 (Homo sapiens, UniProt Q9Y2H9); conditions: read-out: %Inhibition by 10 μM SPA70
T4 construct: purchased DiscoverX (Ambit Biosciences) KINOMEscan
Description: as §1, §2, §3

FES = target: T5, FES (Homo sapiens, UniProt P07332); conditions: read-out: %Inhibition by 10 μM SPA70
T5 construct: purchased DiscoverX (Ambit Biosciences) KINOMEscan
Description: as §1, §2, §3

DMPK2 = target: T6, DMPK2 (Homo sapiens, UniProt Q6DT37); conditions: read-out: %Inhibition by 10 μM SPA70
T6 construct: purchased DiscoverX (Ambit Biosciences) KINOMEscan
Description: as §1, §2, §3

[1] = target: T7, RSK4(Kin.Dom.1-N-terminal) (Homo sapiens, UniProt Q9UK32)
T7 construct: RSK4(Kin.Dom.1-N-terminal); purchased DiscoverX (Ambit Biosciences) KINOMEscan
Description: as §1, §2, §3

FGFR4 = target: T8, FGFR4 (Homo sapiens, UniProt P22455); conditions: read-out: %Inhibition by 10 μM SPA70
T8 construct: purchased DiscoverX (Ambit Biosciences) KINOMEscan
Description: as §1, §2, §3

[2] = target: T9, TYK2(JH2domain-pseudokinase) (Homo sapiens, UniProt P29597)
T9 construct: TYK2(JH2domain-pseudokinase); purchased DiscoverX (Ambit Biosciences) KINOMEscan
Description: as §1, §2, §3

ERBB3 = target: T10, ERBB3 (Homo sapiens, UniProt P21860); conditions: read-out: %Inhibition by 10 μM SPA70
T10 construct: purchased DiscoverX (Ambit Biosciences) KINOMEscan
Description: as §1, §2, §3

FAK = target: T11, FAK (Homo sapiens, UniProt Q05397); conditions: read-out: %Inhibition by 10 μM SPA70
T11 construct: purchased DiscoverX (Ambit Biosciences) KINOMEscan
Description: as §1, §2, §3

EPHA2 = target: T12, EPHA2 (Homo sapiens, UniProt P29317); conditions: read-out: %Inhibition by 10 μM SPA70
T12 construct: purchased DiscoverX (Ambit Biosciences) KINOMEscan
Description: as §1, §2, §3

YSK1 = target: T13, YSK1 (Homo sapiens, UniProt O00506); conditions: read-out: %Inhibition by 10 μM SPA70
T13 construct: purchased DiscoverX (Ambit Biosciences) KINOMEscan
Description: as §1, §2, §3

MEK2 = target: T14, MEK2 (Homo sapiens, UniProt P36507); conditions: read-out: %Inhibition by 10 μM SPA70
T14 construct: purchased DiscoverX (Ambit Biosciences) KINOMEscan
Description: as §1, §2, §3

PDGFRA = target: T15, PDGFRA (Homo sapiens, UniProt P16234); conditions: read-out: %Inhibition by 10 μM SPA70
T15 construct: purchased DiscoverX (Ambit Biosciences) KINOMEscan
Description: as §1, §2, §3

ABL1-phosphorylated = target: T16, ABL1-phosphorylated (Homo sapiens, UniProt P00519); conditions: read-out: %Inhibition by 10 μM SPA70
T16 construct: purchased DiscoverX (Ambit Biosciences) KINOMEscan
Description: as §1, §2, §3

IKK-alpha = target: T17, IKK-alpha (Homo sapiens, UniProt O15111); conditions: read-out: %Inhibition by 10 μM SPA70
T17 construct: purchased DiscoverX (Ambit Biosciences) KINOMEscan
Description: as §1, §2, §3

CSNK2A1 = target: T18, CSNK2A1 (Homo sapiens, UniProt P68400); conditions: read-out: %Inhibition by 10 μM SPA70
T18 construct: purchased DiscoverX (Ambit Biosciences) KINOMEscan
Description: as §1, §2, §3

TSSK1B = target: T19, TSSK1B (Homo sapiens, UniProt Q9BXA7); conditions: read-out: %Inhibition by 10 μM SPA70
T19 construct: purchased DiscoverX (Ambit Biosciences) KINOMEscan
Description: as §1, §2, §3

ERK5 = target: T20, ERK5 (Homo sapiens, UniProt Q13164); conditions: read-out: %Inhibition by 10 μM SPA70
T20 construct: purchased DiscoverX (Ambit Biosciences) KINOMEscan
Description: as §1, §2, §3

PIK3CB = target: T21, PIK3CB (Homo sapiens, UniProt P42338); conditions: read-out: %Inhibition by 10 μM SPA70
T21 construct: purchased DiscoverX (Ambit Biosciences) KINOMEscan
Description: as §1, §2, §3

SNRK = target: T22, SNRK (Homo sapiens, UniProt Q9NRH2); conditions: read-out: %Inhibition by 10 μM SPA70
T22 construct: purchased DiscoverX (Ambit Biosciences) KINOMEscan
Description: as §1, §2, §3

SRPK3 = target: T23, SRPK3 (Homo sapiens, UniProt Q9UPE1); conditions: read-out: %Inhibition by 10 μM SPA70
T23 construct: purchased DiscoverX (Ambit Biosciences) KINOMEscan
Description: as §1, §2, §3

HIPK1 = target: T24, HIPK1 (Homo sapiens, UniProt Q86Z02); conditions: read-out: %Inhibition by 10 μM SPA70
T24 construct: purchased DiscoverX (Ambit Biosciences) KINOMEscan
Description: as §1, §2, §3

MAP4K5 = target: T25, MAP4K5 (Homo sapiens, UniProt Q9Y4K4); conditions: read-out: %Inhibition by 10 μM SPA70
T25 construct: purchased DiscoverX (Ambit Biosciences) KINOMEscan
Description: as §1, §2, §3

TNIK = target: T26, TNIK (Homo sapiens, UniProt Q9UKE5); conditions: read-out: %Inhibition by 10 μM SPA70
T26 construct: purchased DiscoverX (Ambit Biosciences) KINOMEscan
Description: as §1, §2, §3

PFTK1 = target: T27, PFTK1 (Homo sapiens, UniProt O94921)
T27 construct: purchased DiscoverX (Ambit Biosciences) KINOMEscan
Description: as §1, §2, §3

PIP5K2C = target: T28, PIP5K2C (Homo sapiens, UniProt Q8TBX8); conditions: read-out: %Inhibition by 10 μM SPA70
T28 construct: purchased DiscoverX (Ambit Biosciences) KINOMEscan
Description: as §1, §2, §3

PAK1 = target: T29, PAK1 (Homo sapiens, UniProt Q13153); conditions: read-out: %Inhibition by 10 μM SPA70
T29 construct: purchased DiscoverX (Ambit Biosciences) KINOMEscan
Description: as §1, §2, §3

PKAC-beta = target: T30, PKAC-beta (Homo sapiens, UniProt P22694)
T30 construct: purchased DiscoverX (Ambit Biosciences) KINOMEscan
Description: as §1, §2, §3

PIP5K1C = target: T31, PIP5K1C (Homo sapiens, UniProt O60331)
T31 construct: purchased DiscoverX (Ambit Biosciences) KINOMEscan
Description: as §1, §2, §3

LIMK2 = target: T32, LIMK2 (Homo sapiens, UniProt P53671); conditions: read-out: %Inhibition by 10 μM SPA70
T32 construct: purchased DiscoverX (Ambit Biosciences) KINOMEscan
Description: as §1, §2, §3

PRKCH = target: T33, PRKCH (Homo sapiens, UniProt P24723); conditions: read-out: %Inhibition by 10 μM SPA70
T33 construct: purchased DiscoverX (Ambit Biosciences) KINOMEscan
Description: as §1, §2, §3

PIM2 = target: T34, PIM2 (Homo sapiens, UniProt Q9P1W9); conditions: read-out: %Inhibition by 10 μM SPA70
T34 construct: purchased DiscoverX (Ambit Biosciences) KINOMEscan
Description: as §1, §2, §3

ERN1 = target: T35, ERN1 (Homo sapiens, UniProt O75460); conditions: read-out: %Inhibition by 10 μM SPA70
T35 construct: purchased DiscoverX (Ambit Biosciences) KINOMEscan
Description: as §1, §2, §3

NEK9 = target: T36, NEK9 (Homo sapiens, UniProt Q8TD19); conditions: read-out: %Inhibition by 10 μM SPA70
T36 construct: purchased DiscoverX (Ambit Biosciences) KINOMEscan
Description: as §1, §2, §3

CLK4 = target: T37, CLK4 (Homo sapiens, UniProt Q9HAZ1); conditions: read-out: %Inhibition by 10 μM SPA70
T37 construct: purchased DiscoverX (Ambit Biosciences) KINOMEscan
Description: as §1, §2, §3

NEK4 = target: T38, NEK4 (Homo sapiens, UniProt P51957); conditions: read-out: %Inhibition by 10 μM SPA70
T38 construct: purchased DiscoverX (Ambit Biosciences) KINOMEscan
Description: as §1, §2, §3

DDR1 = target: T39, DDR1 (Homo sapiens, UniProt Q08345); conditions: read-out: %Inhibition by 10 μM SPA70
T39 construct: purchased DiscoverX (Ambit Biosciences) KINOMEscan
Description: as §1, §2, §3

EPHA4 = target: T40, EPHA4 (Homo sapiens, UniProt P54764); conditions: read-out: %Inhibition by 10 μM SPA70
T40 construct: purchased DiscoverX (Ambit Biosciences) KINOMEscan
Description: as §1, §2, §3

MAP4K4 = target: T41, MAP4K4 (Homo sapiens, UniProt O95819); conditions: read-out: %Inhibition by 10 μM SPA70
T41 construct: purchased DiscoverX (Ambit Biosciences) KINOMEscan
Description: as §1, §2, §3

T8 sequence (P22455 22-802): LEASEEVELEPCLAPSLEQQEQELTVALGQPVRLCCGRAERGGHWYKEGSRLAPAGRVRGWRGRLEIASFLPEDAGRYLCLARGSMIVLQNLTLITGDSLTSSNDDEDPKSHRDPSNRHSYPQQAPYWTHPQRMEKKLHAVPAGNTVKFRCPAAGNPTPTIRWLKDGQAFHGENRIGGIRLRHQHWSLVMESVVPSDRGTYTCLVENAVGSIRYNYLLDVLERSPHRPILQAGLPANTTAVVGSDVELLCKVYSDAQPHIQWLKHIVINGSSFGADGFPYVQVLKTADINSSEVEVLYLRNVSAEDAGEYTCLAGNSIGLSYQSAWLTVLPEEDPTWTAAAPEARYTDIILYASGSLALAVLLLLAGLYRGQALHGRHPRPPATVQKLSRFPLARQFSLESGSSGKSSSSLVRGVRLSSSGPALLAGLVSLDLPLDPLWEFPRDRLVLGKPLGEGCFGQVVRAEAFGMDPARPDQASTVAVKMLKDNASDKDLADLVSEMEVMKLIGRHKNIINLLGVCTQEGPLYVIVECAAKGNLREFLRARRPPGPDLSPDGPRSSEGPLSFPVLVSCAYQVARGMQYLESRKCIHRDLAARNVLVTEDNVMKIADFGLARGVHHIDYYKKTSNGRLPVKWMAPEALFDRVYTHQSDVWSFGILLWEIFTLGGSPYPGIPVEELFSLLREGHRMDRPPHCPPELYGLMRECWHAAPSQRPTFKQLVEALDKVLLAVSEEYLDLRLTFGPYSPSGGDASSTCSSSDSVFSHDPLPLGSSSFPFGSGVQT
T35 sequence (O75460 19-977): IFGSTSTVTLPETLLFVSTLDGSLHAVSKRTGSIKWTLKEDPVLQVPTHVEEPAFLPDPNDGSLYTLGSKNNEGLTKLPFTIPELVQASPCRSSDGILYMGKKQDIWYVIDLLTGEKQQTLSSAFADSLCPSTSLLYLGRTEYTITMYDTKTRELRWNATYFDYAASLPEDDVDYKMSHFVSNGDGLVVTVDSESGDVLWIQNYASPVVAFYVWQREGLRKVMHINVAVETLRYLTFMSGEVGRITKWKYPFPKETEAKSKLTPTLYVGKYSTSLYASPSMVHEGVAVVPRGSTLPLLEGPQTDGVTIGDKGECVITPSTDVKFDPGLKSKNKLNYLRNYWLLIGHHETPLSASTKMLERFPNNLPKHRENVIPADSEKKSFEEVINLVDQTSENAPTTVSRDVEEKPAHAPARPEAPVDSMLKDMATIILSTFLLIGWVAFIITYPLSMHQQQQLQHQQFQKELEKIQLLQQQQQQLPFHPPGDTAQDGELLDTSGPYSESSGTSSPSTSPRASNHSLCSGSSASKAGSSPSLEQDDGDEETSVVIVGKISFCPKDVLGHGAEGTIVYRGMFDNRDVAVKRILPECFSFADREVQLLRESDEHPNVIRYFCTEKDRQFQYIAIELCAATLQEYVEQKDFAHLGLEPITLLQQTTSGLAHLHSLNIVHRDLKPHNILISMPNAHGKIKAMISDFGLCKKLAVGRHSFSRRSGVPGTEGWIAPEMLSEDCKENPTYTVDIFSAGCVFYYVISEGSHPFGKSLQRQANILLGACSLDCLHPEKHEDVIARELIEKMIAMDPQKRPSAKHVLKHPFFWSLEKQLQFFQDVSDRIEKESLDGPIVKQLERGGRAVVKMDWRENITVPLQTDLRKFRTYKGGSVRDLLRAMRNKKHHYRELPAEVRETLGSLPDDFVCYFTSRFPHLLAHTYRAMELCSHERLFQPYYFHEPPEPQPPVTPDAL
T25 sequence (Q9Y4K4 whole entry): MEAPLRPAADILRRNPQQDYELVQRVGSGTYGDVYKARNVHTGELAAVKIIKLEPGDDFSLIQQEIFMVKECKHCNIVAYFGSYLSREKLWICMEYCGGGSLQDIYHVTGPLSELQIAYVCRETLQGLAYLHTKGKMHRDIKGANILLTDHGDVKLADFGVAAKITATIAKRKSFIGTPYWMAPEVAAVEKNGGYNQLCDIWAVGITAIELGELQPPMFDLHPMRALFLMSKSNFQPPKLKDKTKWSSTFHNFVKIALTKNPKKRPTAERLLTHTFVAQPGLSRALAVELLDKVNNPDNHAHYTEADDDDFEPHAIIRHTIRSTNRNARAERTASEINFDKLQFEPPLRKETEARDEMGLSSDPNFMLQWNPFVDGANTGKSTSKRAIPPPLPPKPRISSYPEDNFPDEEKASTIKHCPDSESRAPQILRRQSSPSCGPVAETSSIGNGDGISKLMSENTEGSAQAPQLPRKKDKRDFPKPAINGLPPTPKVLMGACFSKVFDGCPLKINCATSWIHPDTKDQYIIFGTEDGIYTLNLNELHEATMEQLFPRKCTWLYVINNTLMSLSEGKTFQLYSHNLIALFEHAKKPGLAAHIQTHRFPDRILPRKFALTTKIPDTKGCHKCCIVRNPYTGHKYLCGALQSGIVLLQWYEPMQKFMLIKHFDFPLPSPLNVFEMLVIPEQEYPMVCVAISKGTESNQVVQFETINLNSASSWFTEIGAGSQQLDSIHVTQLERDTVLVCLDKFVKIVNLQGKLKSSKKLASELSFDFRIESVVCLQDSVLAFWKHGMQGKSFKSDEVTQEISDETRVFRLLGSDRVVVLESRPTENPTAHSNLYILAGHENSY
T6 sequence (Q6DT37 whole entry): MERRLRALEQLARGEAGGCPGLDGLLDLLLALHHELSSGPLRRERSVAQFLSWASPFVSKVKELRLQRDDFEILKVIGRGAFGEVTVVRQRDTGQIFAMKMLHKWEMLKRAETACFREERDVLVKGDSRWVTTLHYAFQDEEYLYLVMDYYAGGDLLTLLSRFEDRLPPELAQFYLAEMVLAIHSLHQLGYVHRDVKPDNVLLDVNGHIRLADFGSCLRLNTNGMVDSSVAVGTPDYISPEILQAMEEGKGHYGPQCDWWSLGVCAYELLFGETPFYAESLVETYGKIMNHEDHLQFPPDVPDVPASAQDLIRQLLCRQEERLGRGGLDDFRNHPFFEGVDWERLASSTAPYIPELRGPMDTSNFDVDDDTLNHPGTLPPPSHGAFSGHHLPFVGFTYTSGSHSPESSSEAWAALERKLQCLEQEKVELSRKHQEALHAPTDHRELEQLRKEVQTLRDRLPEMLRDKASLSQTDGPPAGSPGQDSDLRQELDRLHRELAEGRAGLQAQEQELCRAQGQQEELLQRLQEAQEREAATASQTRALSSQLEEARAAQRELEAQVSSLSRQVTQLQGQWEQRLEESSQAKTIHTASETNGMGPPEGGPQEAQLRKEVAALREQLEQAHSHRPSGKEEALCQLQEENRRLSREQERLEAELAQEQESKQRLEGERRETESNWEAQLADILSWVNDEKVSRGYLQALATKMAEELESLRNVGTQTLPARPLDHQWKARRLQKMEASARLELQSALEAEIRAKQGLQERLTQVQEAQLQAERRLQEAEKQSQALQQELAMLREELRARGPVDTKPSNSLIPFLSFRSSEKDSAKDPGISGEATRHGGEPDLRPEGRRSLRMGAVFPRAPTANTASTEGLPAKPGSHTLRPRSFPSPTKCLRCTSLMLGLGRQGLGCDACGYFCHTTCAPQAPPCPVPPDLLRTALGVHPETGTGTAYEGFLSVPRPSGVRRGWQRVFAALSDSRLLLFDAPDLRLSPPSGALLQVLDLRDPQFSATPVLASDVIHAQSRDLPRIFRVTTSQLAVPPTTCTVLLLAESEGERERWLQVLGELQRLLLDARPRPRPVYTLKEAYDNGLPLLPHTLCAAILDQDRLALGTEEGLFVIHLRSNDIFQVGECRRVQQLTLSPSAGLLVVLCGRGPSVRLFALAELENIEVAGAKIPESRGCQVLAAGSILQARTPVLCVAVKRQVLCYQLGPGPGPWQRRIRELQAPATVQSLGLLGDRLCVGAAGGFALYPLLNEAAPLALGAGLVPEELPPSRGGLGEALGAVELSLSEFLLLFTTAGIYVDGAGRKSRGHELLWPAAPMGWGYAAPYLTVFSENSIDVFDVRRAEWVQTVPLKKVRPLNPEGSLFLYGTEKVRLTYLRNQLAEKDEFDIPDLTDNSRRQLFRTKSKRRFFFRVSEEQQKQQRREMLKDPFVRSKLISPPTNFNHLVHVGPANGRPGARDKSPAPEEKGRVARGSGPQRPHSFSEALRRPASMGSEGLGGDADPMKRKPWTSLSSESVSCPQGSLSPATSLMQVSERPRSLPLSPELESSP
T31 sequence (O60331 whole entry): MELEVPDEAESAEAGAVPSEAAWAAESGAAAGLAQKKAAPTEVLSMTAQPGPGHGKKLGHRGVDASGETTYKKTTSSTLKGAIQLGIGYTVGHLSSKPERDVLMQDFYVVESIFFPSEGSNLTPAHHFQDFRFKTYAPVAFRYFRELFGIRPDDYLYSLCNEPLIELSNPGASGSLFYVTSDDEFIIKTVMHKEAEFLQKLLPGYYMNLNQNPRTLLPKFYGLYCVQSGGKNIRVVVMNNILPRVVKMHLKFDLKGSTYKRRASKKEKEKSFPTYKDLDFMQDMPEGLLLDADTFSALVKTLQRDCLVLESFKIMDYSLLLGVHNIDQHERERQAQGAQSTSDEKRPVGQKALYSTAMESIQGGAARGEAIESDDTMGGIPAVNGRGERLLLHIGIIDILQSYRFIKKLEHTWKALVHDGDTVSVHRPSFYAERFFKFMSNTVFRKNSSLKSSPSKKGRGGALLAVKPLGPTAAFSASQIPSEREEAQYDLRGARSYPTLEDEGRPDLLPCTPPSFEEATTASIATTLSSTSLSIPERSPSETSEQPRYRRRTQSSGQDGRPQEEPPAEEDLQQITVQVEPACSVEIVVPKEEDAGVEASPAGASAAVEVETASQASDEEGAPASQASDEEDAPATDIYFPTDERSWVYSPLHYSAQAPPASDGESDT

SMILES: COc1ccc(OC)c(-n2nnc(S(=O)(=O)c3ccc(C(C)(C)C)cc3)c2C)c1 [SPA70]
- inhibition at 10 µM (PIM1): 0%
- inhibition at 10 µM (MST4): 15%
- inhibition at 10 µM (CAMK1G): 25%
- inhibition at 10 µM (MAST1): 0%
- inhibition at 10 µM (FES): 40%
- inhibition at 10 µM (DMPK2): 3%
- %Inhibition by 10 μM SPA70 [1]: 4%
- inhibition at 10 µM (FGFR4): 5%
- %Inhibition by 10 μM SPA70 [2]: 0%
- inhibition at 10 µM (ERBB3): 42%
- inhibition at 10 µM (FAK): 6%
- inhibition at 10 µM (EPHA2): 0%
- inhibition at 10 µM (YSK1): 2%
- inhibition at 10 µM (MEK2): 4%
- inhibition at 10 µM (PDGFRA): 36%
- inhibition at 10 µM (ABL1-phosphorylated): 19%
- inhibition at 10 µM (IKK-alpha): 10%
- inhibition at 10 µM (CSNK2A1): 15%
- inhibition at 10 µM (TSSK1B): 0%
- inhibition at 10 µM (ERK5): 0%
- inhibition at 10 µM (PIK3CB): 8%
- inhibition at 10 µM (SNRK): 0%
- inhibition at 10 µM (SRPK3): 0%
- inhibition at 10 µM (HIPK1): 32%
- inhibition at 10 µM (MAP4K5): 0%
- inhibition at 10 µM (TNIK): 10%
- %Inhibition by 10 μM SPA70 (PFTK1): 0%
- inhibition at 10 µM (PIP5K2C): 10%
- inhibition at 10 µM (PAK1): 0%
- %Inhibition by 10 μM SPA70 (PKAC-beta): not inhibited
- inhibition at 10 µM (PKAC-beta; read-out: %Inhibition by 10 μM SPA70): 0%
- %Inhibition by 10 μM SPA70 (PIP5K1C): 0%
- inhibition at 10 µM (LIMK2): 2%
- inhibition at 10 µM (PRKCH): 13%
- inhibition at 10 µM (PIM2): 0%
- inhibition at 10 µM (ERN1): 0%
- inhibition at 10 µM (NEK9): 0%
- inhibition at 10 µM (CLK4): 4%
- inhibition at 10 µM (NEK4): 21%
- inhibition at 10 µM (DDR1): 0%
- inhibition at 10 µM (EPHA4): 0%
- inhibition at 10 µM (MAP4K4): 0%
